Consider 3 compounds from patent publication US6746688B1, “Apparatus for the transdermal treatment of Parkinson's disease” (Neuroderm Ltd., priority 1996, dated 2004).

For one series, the system named is Parkinson's disease. Conditions: Refs. 19-21; cited from earlier work.
Series [1] is described as follows: Solubility of LD derivatives in potential solvents. Type of series: physicochemical. The text has this:
The solubility of LD, LD methyl ester (LDME) and LD ethyl ester (LDEE) was examined in several potential solvents, with increasing amounts of the three LD derivatives being added to a constant volume of 5% propionic acid in water or 10% propionic acid in propylene glycol.

The nature of series [2]: Pilot experiment of transdermal delivery, LDEE in serum by HPLC with electrochemical detector. The series is classed as in vivo. The conditions noted are these: two human volunteers, 24 h dermal exposure, propylene glycol with 10% propionic acid and 5% sodium deoxycholate or sodium dodecylsulfate. The procedure:
In a pilot experiment of transdermal delivery, two human volunteers were exposed for 24 h to LDEE dissolved in propylene glycol containing 10% propionic acid and 5% of either sodium deoxycholate (one volunteer) or sodium dodecylsulfate (one volunteer). Blood samples were taken at various times after the application of the LDEE on the skin and LDEE in the serum was separated on high performance liquid chromatography and determined with an electrochemical detector. The protocol and the details of this pilot study are described in the enclosed appendix. […] These levels are considered appropriate for obtaining therapeutic effect in Parkinson's patients.

Series [3] can be described thus: Stability of LDEE in formulations by thin layer chromatography. The series is classed as physicochemical. As for the experimental part: The stability of LDEE was tested in several combinations of potential components of the formulation. For this purpose, 500 mg LDEE was dissolved in 1 ml 5% propionic acid just before the beginning of the stability experiment. In parallel, 500 mg LDEE was dissolved in 1 ml propylene glycol containing 10% propionic acid. These preparations of LDEE were used as stock solutions for several tested formulations as follows: […]
1) LDEE in aqueous solution of 5% propionic as prepared above.
2) Same solution as in No. 1 above+5% sodium deoxycholate.
3) Same solution as in No. 1 above+5% sodium dodecylsulfate.
4) Same solution as in No. 1 above+5% Tween-20.
5) Same solution as in No. 1 above+5% tritonX100.
6) Same solution as in No. 1 above+glycerol at a ratio of 1:1.
7) Same solution as in No. 1 above+propylene glycol at a ratio of 2:1.
8) LDEE in propylene glycol containing 10% propionic acid.
9) Same solution as in No. 8 above+5% sodium deoxycholate.
10) Same solution as in No. 8 above+5% sodium dodecylsulfate.
The above LDEE formulations were run on a thin layer chromatography (on silica gel—Merk Art. 5735; and on cellulose—Merk Art. 5574) for a qualitative detection of LDEE and its degradative products. The various LDEE formulations were kept at room temperature for several days and separation of the LDEE and its degradative products on the thin layer chromatography were repeated at various times after dissolving the LDEE. The running solvents for the thin layer chromatography were:
a) Propanol: Butanoic Acid: Water (20:4:10).
b) Dichloromethane: Acetone: Ethyl-Acetate: Methanol (35:15:1:0.25).

Where two headings read alike, the source gives them in different places.

`N[C@@H](Cc1ccc(O)c(O)c1)C(=O)O` [LD, Levodopa]: the “LD plasma levels at which therapeutic effects were noticed” value in the series on Parkinson's disease was 300 to 800 ng/mL. For the same compound, the solubility entry in series [1] is listed as “negligible amounts”.
Turning to `CCOC(=O)[C@@H](N)Cc1ccc(O)c(O)c1` [LDEE, levodopa-ethyl-ester], in series [2], the “blood levels of LDEE after dermal application” value was “about 200 ng/ml”. Further, the “degradative products on thin layer chromatography” value in series [3] (24 h after dissolving, room temperature, formulations that contained tritonX100) is recorded as “Degradative products appeared”; in series [3] (24 h after dissolving, room temperature, other formulations (without tritonX100)), “did not show significant degradation”; in series [3] (48 h after dissolving, room temperature, all the aqueous solutions), “degradative products appeared”; in series [3] (immediately after the preparation, all formulations), “No degradative products were seen”. The “order of degradation among aqueous formulations” value in series [3] (48 h after dissolving, room temperature, aqueous solutions) is “formulation containing tritonX100>formulation containing Tween-20 >formulation containing sodium dodecylsulfate=formulation containing sodium deoxycholate”. For the same compound, in series [3] (propylene glycol-based formulations, room temperature), the “time LDEE was stable” value is given as “more than 48 h”. Also, in series [1], the solubility result is recorded as “at least 660 mg in 1 ml”.
For the compound `COC(=O)[C@@H](N)Cc1ccc(O)c(O)c1` [LDME, LD methyl ester], the solubility result in series [1] (5% propionic acid in water) and in series [1] (10% propionic acid in propylene glycol) was “negligible amounts” in each case.
